The record followed here is patent US7276512B2, “Benzo[a]pyrano[3,2-h]acridin-7-one compounds” (Les Laboratoires Servier, priority 2003, dated 2007).

In one assay the test system is L1210 murine leukaemia. Kind of assay: In vitro cytotoxicity, Microculture Tetrazolium Assay, L1210. As to conditions: L1210, 2 days incubation; read-out: IC50 (concentration which inhibits proliferation of the treated cells by 50%). Type of assay: cell-based. Here is the method:
(§1) Four cell lines were used: • 1 murine leukaemia: L1210, • 1 human epidermoid carcinoma: KB-3-1, • 1 human colon carcinoma: HT29, • 1 human prostate carcinoma: LNCap.
(§2) The cells are cultured in RPMI 1640 complete culture medium containing 10% foetal calf serum, 2 mM glutamine, 50 units/ml of penicillin, 50 μg/ml of streptomycin and 10 mM Hepes, pH=7.4. The cells are distributed on microplates and are exposed to the cytotoxic compounds. The cells are then incubated for 2 days (L1210) or 4 days (human lines). The number of viable cells is then quantified by a colorimetric assay, the Microculture Tetrazolium Assay (Cancer Res. 1987, 47, 939-942). The results are expressed in terms of the IC50 (the concentration of cytotoxic agent which inhibits proliferation of the treated cells by 50%).

The test system of assay [1] is LNCap human prostate carcinoma. Briefly: In vitro cytotoxicity, Microculture Tetrazolium Assay, LNCap. As to conditions: 4 days incubation, read-out: IC50 (concentration which inhibits proliferation of the treated cells by 50%). Type of assay: cell-based. Here is the method:
as §1, §2

Assay [2] relates to KB-3-1 human epidermoid carcinoma. Briefly: In vitro cytotoxicity, Microculture Tetrazolium Assay, KB-3-1. In kind it is cell-based. As to conditions: KB-3-1, 4 days incubation; read-out: IC50 (concentration which inhibits proliferation of the treated cells by 50%). The method, then: as §1, §2
Assay [3] concerns HT29 human colon carcinoma. Kind of assay: In vitro cytotoxicity, Microculture Tetrazolium Assay, HT29. In kind it is cell-based. As to conditions: HT-29, 4 days incubation; read-out: IC50 (concentration which inhibits proliferation of the treated cells by 50%). Here is the method: as §1, §2
In assay [4] the test system is C38 adenocarcinoma of the colon. Briefly: Anti-tumour activity with respect to C38 adenocarcinoma of the colon. In kind it is in vivo. As to conditions: i.v. on days 12 and 22, s.c. C38 in B6D2F1 mice. Here is the method:
Anti-Tumour Activity with Respect to C38 Adenocarcinoma of the Colon
Tumour fragments of C38 adenocarcinoma of the colon weighing approximately 30 mg were implanted under the skin of B6D2F1 mice (Iffa Credo, France) on day 0. After growth of the tumour, the mice were divided into control (18 animals) and treated (6 or 7 animals) groups, which were homogeneous with respect to tumour size. The products were administered twice by the i.v. route on days 12 and 22, at their Maximum Tolerated Dose (MTD), MTD/2 and MTD/4.
The tumours were measured twice a week and the tumour volumes were calculated according to the following formula: volume (mm^3)=length (mm)×[…]/2.
The anti-tumour activity is expressed as % T/C: […]
V0 and Vt being the initial volume of the tumour and its volume at measurement time t, respectively.
The optimum dose is the dose giving the lowest T/C value without toxicity (early death or weight loss greater than 20%).

Regarding `COc1cc2c(c3c1c(=O)c1c4ccccc4ccc1n3C)[C@@H](OC(C)=O)[C@@H](OC(C)=O)C(C)(C)O2` (racemic) [Example 5, (±)-cis-1,2-Diacetoxy-6-methoxy-3,3,14-trimethyl-1,2,3,14-tetrahydro-7H-benzo[α]pyrano[3,2-h]-acridin-7-one], the IC50 with L1210 murine leukaemia was 730 nM; in assay [1], 570 nM; in assay [2] it was 140 nM; in assay [3], 1180 nM. The compound also showed a T/C in assay [4] (optimum dose of 4 mg/kg) of 5%. The “inhibition of the tumour growth” value in assay [4] (optimum dose of 4 mg/kg) came to 95%.
Take `COc1cc2c(c3c1c(=O)c1c4ccccc4ccc1n3C)[C@H]1OC(=O)O[C@H]1C(C)(C)O2` (racemic) [Example 6, (±)-cis-7-Methoxy-4,4,15-trimethyl-15,15c-dihydro-4H-benzo[α][1,3]-dioxolo[4′,5′:4,5]pyrano[3,2-h]acridine-2,8[3aH]-dione]: the values for the IC50 (in the assay with L1210 murine leukaemia; in assay [2]) were 60 nM and 15 nM, respectively.
In turn, `COc1cc2c(c3c1c(=O)c1ccccc1n3C)C=CC(C)(C)O2` [acronycine, reference compound] yielded a T/C in assay [4] (optimum dose of 100 mg/kg) of 27%.

A word on the T/C: it is the ratio of treated to control.
